In ChEMBL document CHEMBL1201862, “PubChem BioAssay data set” (2004):
The source made the active and inactive calls.

Experiments:
[1] = A cytotoxicity screen of small molecule inhibitors of the PhoP region in Salmonella typhi identified in the primary screen. [Related pubchem assays: 1850, 1864, 1985 ]; assay type: functional
[2] = HEK-293T cell viability reduction – luminescence, B-cell screen hits, cytotoxicity control for BCR NF-kB inhibitor project, dose response (AID 489021); assay type: functional, cell-based;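 also: HEK-293T cells carrying an NF-kB luciferase reporter; cells exposed to compound for about 14 hours before viability readout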
Large T antigen = Large T antigen (Simian virus 40, UniProt P03070); assay type: functional, Betapolyomavirus macacae;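 also: Confirmatory-stage PubChem screen for compounds that inhibit SV40 T antigen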
Chain of Large T antigen (P03070 whole entry): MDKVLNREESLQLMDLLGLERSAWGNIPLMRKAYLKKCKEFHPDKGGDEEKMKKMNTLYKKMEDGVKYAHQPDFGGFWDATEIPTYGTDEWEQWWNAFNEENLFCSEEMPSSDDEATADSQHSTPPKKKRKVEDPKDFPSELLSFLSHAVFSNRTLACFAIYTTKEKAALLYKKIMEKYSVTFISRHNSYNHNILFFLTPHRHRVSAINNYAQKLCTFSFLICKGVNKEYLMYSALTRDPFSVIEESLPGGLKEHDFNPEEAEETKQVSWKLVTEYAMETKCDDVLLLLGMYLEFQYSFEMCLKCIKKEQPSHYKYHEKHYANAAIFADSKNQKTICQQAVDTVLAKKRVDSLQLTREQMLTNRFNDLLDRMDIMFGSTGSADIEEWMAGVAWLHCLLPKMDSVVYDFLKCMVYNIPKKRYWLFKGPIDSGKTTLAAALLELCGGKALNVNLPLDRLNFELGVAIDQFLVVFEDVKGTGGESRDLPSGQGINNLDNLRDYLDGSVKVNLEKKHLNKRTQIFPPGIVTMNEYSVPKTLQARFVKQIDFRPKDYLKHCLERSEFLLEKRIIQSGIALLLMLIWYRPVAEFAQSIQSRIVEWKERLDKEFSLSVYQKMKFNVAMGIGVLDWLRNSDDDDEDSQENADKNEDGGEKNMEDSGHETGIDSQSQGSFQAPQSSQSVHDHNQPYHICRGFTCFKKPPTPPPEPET

[3] = target: Induced myeloid leukemia cell differentiation protein Mcl-1 (Homo sapiens, UniProt Q07820); assay type: functional
Chain of Induced myeloid leukemia cell differentiation protein Mcl-1 (Q07820 whole entry): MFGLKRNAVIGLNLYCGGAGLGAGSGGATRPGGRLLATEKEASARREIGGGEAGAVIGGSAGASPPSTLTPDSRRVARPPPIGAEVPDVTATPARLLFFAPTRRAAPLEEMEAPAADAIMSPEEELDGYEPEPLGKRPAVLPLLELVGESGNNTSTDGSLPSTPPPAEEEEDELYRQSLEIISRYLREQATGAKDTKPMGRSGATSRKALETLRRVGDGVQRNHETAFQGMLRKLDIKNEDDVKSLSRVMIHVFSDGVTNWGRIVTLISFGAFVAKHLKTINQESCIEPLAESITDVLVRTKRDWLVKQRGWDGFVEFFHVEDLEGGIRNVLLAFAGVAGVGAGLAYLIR

[4] = target: Neurotensin receptor type 1 (Homo sapiens, UniProt P30989); assay type: functional;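 also: Image-based confirmatory dose-response assay measuring agonist activity at NTR1; NTR1-expressing U2OS osteosarcoma cells imaged for beta-arrestin GFP spot formation; agonist potency where compounds increase beta-arrestin recruitment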
H9c2 = test: cells; assay type: functional, cell-based; conditions: Rattus norvegicus, H9c2, Myocardium
Estrogen receptor = target: T1, Estrogen receptor (Homo sapiens, UniProt P03372); test: ERα coactivator recruitment enhancers – biochemical, TR-FRET, ERα LBD, dose response (AID 737)
T1 sequence (P03372 whole entry): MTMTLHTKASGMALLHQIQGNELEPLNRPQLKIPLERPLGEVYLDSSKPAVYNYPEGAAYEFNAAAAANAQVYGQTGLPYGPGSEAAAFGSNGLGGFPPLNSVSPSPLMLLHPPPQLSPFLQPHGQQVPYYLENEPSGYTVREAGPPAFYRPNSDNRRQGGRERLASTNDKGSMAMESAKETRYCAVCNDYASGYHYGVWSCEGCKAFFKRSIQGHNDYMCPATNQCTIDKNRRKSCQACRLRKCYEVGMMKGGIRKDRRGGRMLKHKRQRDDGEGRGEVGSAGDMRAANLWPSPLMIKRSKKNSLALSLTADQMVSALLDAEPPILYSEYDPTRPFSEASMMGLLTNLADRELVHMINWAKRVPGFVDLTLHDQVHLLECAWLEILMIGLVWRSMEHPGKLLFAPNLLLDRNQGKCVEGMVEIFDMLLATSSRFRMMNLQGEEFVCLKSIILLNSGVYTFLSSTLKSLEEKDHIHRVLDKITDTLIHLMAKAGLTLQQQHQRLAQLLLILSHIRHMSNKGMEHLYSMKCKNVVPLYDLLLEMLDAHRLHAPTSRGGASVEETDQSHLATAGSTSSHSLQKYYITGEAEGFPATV

[5] = target: Voltage-dependent T-type calcium channel subunit alpha-1H (Homo sapiens, UniProt O95180); assay type: functional;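 also: channel activity triggered by adding a high calcium stimulation buffer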
Chain of Voltage-dependent T-type calcium channel subunit alpha-1H (O95180 whole entry): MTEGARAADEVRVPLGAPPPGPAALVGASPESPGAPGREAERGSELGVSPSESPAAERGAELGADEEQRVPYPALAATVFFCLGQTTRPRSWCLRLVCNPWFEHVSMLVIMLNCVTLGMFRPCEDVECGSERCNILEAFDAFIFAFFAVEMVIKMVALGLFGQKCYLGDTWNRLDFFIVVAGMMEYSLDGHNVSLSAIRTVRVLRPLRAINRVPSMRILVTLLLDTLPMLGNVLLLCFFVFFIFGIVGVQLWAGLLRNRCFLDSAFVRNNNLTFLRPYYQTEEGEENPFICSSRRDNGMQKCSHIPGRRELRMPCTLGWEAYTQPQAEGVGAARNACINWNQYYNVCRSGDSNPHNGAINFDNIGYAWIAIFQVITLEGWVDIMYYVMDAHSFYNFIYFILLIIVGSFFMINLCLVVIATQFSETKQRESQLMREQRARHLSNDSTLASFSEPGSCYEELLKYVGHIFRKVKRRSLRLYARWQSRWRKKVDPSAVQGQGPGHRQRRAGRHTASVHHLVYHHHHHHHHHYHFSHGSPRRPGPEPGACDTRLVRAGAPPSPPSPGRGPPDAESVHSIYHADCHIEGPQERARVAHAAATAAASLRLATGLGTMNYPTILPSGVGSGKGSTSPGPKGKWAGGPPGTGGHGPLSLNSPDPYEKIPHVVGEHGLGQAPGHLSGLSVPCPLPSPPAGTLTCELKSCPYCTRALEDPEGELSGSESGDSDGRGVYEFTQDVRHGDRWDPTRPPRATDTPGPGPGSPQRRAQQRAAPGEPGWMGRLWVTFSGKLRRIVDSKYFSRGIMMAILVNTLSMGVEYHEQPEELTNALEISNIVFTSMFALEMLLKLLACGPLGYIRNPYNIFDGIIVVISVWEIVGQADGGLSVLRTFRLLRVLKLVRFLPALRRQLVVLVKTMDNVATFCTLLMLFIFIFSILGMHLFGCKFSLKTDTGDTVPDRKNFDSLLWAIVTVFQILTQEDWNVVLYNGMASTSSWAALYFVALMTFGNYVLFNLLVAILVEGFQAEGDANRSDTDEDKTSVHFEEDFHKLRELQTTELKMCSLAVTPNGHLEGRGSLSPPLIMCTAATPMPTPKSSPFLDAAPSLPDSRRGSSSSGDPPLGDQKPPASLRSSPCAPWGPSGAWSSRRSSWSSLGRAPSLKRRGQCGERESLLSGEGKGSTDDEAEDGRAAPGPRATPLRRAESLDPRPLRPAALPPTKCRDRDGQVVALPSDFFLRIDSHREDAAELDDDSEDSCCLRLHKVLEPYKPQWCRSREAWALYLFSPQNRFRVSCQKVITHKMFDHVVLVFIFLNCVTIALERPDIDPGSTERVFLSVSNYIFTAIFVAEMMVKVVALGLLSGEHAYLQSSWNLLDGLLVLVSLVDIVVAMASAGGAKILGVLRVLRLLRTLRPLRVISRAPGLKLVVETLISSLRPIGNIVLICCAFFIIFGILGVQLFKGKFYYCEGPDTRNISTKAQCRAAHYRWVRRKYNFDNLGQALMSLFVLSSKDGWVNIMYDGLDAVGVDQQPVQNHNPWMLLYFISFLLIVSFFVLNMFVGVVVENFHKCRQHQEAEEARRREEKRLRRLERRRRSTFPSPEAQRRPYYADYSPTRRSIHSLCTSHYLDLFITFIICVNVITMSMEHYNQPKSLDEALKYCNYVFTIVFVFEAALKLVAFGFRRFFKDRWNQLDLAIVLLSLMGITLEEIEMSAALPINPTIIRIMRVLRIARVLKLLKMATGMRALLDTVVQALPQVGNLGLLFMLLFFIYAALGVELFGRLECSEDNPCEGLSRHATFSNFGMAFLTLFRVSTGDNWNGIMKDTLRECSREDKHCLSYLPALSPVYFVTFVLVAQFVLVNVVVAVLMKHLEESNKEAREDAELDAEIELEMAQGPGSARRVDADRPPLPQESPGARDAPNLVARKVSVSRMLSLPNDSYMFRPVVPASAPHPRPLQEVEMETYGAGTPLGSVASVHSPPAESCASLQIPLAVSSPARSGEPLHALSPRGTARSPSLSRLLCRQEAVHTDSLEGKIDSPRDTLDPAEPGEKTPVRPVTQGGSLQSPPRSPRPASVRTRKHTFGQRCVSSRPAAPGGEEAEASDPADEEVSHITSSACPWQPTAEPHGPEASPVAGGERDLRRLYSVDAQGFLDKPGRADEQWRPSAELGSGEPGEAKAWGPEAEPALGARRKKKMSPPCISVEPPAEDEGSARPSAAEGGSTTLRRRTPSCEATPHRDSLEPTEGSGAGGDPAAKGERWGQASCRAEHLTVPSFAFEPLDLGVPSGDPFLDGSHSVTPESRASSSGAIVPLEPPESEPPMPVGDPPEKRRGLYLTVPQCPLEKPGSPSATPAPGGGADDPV

Fatty acid synthase [6] = target: T2, Fatty acid synthase (Homo sapiens, UniProt P49327); test: inhibition of human FAS-TE enzyme activity – biochemical, kinetic fluorescence intensity, dose response (AID 624326); assay type: functional;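 also: rate of fluorescence rise from hydrolysis of a fluorogenic O-methyl fluorescein ester substrate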
Fatty acid synthase [7] = target: T2, Fatty acid synthase; test: inhibition of human FAS-TE enzyme activity – biochemical, endpoint fluorescence intensity, uHTS hits, dose response (AID 624327); assay type: functional;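 also: fluorescence from hydrolysis of an O-methyl fluorescein acyl ester substrate by the enzyme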
Streptococcus = test: GAS UMAA2166 growth inhibition – luminescence, BacTiterGlo, counter-screen for streptokinase expression inhibitor project, dose response (AID 1915); assay type: functional, organism-based;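 also: potency for reduction of bacterial viability or growth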
Streptokinase A = target: T3, Streptokinase A (Streptococcus pyogenes serotype M1, UniProt P10520); test: viability-normalized secreted streptokinase activity reduction – plasminogen activation absorbance, OD405, dose response (AID 1914); assay type: functional, Streptococcus pyogenes M1 GAS;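 also: secreted streptokinase activity via plasminogen activation per viability signal from cell pellet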
T3 sequence (P10520 whole entry): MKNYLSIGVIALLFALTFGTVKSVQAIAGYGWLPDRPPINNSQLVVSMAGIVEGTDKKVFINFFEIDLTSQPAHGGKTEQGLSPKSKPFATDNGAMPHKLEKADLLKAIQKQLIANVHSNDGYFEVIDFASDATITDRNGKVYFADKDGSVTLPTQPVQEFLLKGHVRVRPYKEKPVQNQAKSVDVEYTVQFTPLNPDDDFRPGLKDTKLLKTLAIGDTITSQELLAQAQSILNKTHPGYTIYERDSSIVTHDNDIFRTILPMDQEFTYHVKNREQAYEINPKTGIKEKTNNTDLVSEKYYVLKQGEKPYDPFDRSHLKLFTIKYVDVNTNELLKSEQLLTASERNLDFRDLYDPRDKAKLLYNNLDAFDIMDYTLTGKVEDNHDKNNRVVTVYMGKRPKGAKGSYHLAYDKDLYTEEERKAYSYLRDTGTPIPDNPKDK

[8] = system: Streptococcus sp. 'group A'; test: Streptococcus pyogenes SK(-)GAS viability under kanamycin – luminescence, BacTiterGlo, confirmation, counter-screen for streptokinase expression inhibitor project, dose response (AID 1900); assay type: functional, organism-based
[9] = antiviral protection against BTV-induced cell death – arbovirus, BSR cells, confirmation (AID 1250); assay type: functional;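 also: protection from viral cytopathic effect measured as cell viability by ATP luminescence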
[10] = target: DNA dC->dU-editing enzyme APOBEC-3G (Homo sapiens, UniProt Q9HC16); test: Dose Response confirmation of small molecule APOBEC3G DNA Deaminase Inhibitors via a fluorescence-based single-stranded DNA deaminase assay. [Related pubchem assays (depositor defined):AID493012, AID493028]; assay type: functional
Chain of DNA dC->dU-editing enzyme APOBEC-3G (Q9HC16 whole entry): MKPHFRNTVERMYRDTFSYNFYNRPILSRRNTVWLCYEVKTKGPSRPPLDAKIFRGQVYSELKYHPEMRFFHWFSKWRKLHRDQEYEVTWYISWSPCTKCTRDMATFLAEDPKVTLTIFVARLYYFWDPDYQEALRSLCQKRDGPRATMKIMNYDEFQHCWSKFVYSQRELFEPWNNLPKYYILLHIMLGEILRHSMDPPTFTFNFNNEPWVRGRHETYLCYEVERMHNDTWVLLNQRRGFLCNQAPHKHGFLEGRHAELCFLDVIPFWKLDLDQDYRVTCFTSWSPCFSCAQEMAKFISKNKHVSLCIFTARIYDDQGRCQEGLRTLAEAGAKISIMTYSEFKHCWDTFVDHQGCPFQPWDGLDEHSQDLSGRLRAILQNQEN

[11] = target: DNA dC->dU-editing enzyme APOBEC-3A (Homo sapiens, UniProt P31941); test: A3A deaminase inhibition for selectivity – biochemical, dose response (AID 504722); assay type: functional
Chain of DNA dC->dU-editing enzyme APOBEC-3A (P31941 whole entry): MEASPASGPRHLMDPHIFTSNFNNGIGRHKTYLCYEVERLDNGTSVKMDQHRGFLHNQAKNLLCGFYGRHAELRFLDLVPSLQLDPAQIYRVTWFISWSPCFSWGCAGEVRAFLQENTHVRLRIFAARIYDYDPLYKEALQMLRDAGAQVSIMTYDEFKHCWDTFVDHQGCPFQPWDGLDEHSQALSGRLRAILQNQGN

[12] = target: T4, Serine/threonine-protein phosphatase (Homo sapiens, UniProt Q9BPW0); test: Counterscreen for inhibitors of PP1: fluorescence-based biochemical high throughput dose response assay to identify inhibitors of Protein Phosphatase 5 (PP5). [Related pubchem assays: 2034 (Summary (PP5 inhibitors)), 1987 (PP5 inhibitors in singlate), 2235 (PP1 inhibitors in singlate)]
T4 sequence (Q9BPW0 whole entry): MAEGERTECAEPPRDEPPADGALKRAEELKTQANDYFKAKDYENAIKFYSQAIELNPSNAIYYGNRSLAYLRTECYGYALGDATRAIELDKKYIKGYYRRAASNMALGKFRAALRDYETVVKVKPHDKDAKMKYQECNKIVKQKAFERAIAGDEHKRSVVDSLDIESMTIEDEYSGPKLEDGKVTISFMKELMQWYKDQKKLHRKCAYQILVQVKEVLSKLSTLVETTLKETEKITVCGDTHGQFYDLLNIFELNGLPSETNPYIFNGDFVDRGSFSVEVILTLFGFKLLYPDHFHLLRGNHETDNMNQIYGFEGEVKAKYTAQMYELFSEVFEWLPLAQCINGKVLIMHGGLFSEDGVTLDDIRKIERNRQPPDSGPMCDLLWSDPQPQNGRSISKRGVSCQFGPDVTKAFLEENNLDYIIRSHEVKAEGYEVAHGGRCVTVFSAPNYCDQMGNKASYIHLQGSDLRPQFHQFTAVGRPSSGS

Vero = test: viability of Vero cells under compound – cytotoxicity control for flavivirus capping enzyme inhibitors (AID 588742); assay type: functional; conditions: Chlorocebus sabaeus
Coagulation factor XII = target: T5, Coagulation factor XII (Homo sapiens, UniProt P00748); assay type: functional;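 also: activated factor XIIa alpha cleaving a fluorogenic AMC peptide substrate; inhibitor potency from loss of enzyme activity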
T5 sequence (P00748 whole entry): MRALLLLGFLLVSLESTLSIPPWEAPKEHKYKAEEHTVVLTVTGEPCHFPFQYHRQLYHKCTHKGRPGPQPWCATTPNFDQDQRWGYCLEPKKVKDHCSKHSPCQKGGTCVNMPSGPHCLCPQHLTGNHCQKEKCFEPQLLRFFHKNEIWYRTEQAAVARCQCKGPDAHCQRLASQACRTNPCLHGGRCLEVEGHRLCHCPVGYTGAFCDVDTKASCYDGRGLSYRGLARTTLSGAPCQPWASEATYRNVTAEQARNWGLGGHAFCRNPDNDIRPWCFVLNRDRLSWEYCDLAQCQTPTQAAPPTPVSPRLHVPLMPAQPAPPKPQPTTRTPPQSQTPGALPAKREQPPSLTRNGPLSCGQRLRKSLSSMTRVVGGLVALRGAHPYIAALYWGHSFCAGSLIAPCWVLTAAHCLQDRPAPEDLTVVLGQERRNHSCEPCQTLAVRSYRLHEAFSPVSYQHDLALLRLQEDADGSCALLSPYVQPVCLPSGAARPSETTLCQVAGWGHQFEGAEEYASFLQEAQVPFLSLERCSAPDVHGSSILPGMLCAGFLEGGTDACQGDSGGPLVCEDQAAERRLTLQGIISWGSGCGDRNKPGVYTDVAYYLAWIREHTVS

[13] = target: T6, Probable nicotinate-nucleotide adenylyltransferase (Staphylococcus aureus (strain N315), UniProt P65502); assay type: functional, Staphylococcus aureus subsp. aureus N315;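 as to IC50 Mean: confirmatory dose-response retesting of NadD inhibitor hits first found in an ultra-high-throughput screen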
T6 sequence (P65502 whole entry): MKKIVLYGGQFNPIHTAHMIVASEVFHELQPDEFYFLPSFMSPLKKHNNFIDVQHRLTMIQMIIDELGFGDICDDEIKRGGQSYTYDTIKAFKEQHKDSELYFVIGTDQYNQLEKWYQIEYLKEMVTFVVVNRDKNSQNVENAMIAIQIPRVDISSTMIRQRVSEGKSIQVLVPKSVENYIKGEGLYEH

Genome polyprotein = Genome polyprotein (dengue virus type 2, UniProt P29990); test: flavivirus cap methylation enzyme inhibition – biochemical, confirmation dose response, primary screen (AID 588689); assay type: functional
Cytochrome P450 2D6 = Cytochrome P450 2D6 (Homo sapiens, UniProt P10635);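 also: CYP2D6 member of a cytochrome P450 panel assay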
Chain of Cytochrome P450 2D6 (P10635 whole entry): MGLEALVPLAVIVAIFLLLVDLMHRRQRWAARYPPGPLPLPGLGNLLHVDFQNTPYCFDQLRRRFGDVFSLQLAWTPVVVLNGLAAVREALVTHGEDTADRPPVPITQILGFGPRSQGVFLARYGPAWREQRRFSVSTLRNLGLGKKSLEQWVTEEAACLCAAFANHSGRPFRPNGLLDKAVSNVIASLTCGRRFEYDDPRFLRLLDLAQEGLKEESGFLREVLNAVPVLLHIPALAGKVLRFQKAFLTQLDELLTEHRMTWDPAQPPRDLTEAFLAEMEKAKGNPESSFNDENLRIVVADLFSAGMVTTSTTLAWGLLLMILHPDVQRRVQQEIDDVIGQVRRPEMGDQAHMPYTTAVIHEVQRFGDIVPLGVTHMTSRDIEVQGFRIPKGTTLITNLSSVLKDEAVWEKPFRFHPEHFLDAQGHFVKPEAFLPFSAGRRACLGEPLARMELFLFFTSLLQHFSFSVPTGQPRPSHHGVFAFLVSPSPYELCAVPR

Prothrombin = Prothrombin (Homo sapiens, UniProt P00734); test: Thrombin 1536 HTS Dose Response Confirmation. [Related pubchem assays: 1046 (Thrombin 1536 HTS; hits were confirmed in this assay)]; assay type: functional
[14] = target: T6, Probable nicotinate-nucleotide adenylyltransferase; assay type: functional, Staphylococcus aureus subsp. aureus N315; conditions: read-out: IC50_Mean
Procathepsin L = Procathepsin L (Homo sapiens, UniProt P07711)
Chain of Procathepsin L (P07711 whole entry): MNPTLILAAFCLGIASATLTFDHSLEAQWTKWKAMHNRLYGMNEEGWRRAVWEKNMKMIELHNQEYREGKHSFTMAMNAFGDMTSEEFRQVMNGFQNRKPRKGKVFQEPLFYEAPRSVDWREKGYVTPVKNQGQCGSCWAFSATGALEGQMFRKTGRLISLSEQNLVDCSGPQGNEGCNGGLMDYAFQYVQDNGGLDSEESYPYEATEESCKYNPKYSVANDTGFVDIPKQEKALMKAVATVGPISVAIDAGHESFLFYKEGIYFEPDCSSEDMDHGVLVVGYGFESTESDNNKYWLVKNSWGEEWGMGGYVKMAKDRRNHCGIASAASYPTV

Aspartyl aminopeptidase = target: T7, Aspartyl aminopeptidase (Plasmodium falciparum 3D7, UniProt Q8I2J3)
T7 sequence (Q8I2J3 whole entry): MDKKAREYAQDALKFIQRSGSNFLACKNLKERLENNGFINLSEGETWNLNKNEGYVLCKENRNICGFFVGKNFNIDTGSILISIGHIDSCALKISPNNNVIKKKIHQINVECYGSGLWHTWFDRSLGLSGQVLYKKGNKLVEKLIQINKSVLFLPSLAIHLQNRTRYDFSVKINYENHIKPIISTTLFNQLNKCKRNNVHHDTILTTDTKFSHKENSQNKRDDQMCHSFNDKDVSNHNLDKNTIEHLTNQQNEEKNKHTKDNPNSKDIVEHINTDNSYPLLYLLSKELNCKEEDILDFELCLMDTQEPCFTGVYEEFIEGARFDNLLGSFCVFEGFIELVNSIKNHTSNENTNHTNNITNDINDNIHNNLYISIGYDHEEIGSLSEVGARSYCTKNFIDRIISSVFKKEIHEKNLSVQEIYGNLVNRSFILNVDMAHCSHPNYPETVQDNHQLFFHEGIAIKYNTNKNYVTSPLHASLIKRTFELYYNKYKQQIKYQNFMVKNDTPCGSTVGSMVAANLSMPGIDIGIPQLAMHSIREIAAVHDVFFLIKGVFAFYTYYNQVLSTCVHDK

[15] = Trypanosoma cruzi growth suppression in host cells – NIH3T3 host cells, beta-gal luminescence, confirmation (AID 2044); assay type: functional, cell-based;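 also: intracellular parasites grown in NIH/3T3 mouse fibroblasts as host cells; luminescent beta-galactosidase reporter signal from transgenic T. cruzi replicating inside host cells; inhibitors lower the luminescence signal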
[16] = NIH3T3 cell viability loss – ATP luminescence, mouse fibroblasts, counter-screen, dose response (AID 2010); assay type: functional, cell-based;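 also: cells exposed to compound for about 90 hours before reading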
Cytochrome P450 2C9 = Cytochrome P450 2C9 (Homo sapiens, UniProt P11712)

## COc1ccc(NC(=O)Cn2c(=O)oc3cc(S(=O)(=O)N4CCCC4)ccc32)c(OC)c1
[1]
  EC50: > 50 µM (active)

## CC(C)Oc1ccc(C(=O)Nc2ccc(N(C)C)cc2)cc1
[2]
  IC50: > 80 µM (inactive)
Large T antigen
  IC50: 25.3 µM (active)
[3]
  IC50: 4.48 µM (not active)

## CCOc1ccc(Br)cc1S(=O)(=O)Nc1ccccc1N1CCOCC1
[4]
  EC50: > 40 µM (inactive)

## Cc1ccc(-c2nn3c(C)nnc3s2)cc1NC(=O)COc1ccc(Cl)cc1
H9c2
  IC50: > 79 µM (inactive)
Estrogen receptor
  EC50: 17.2 µM (active)

## O=C(NCc1ccccc1)C(c1ccccc1)N(Cc1ccc2c(c1)OCO2)C(=O)Cc1cccs1 (stereo unspecified)
[5]
  EC50: 5.37 µM (active)

## COc1ccc(C(=O)O)cc1NC(=S)NC(=O)c1ccc(-c2ccc(Cl)cc2)o1
Fatty acid synthase [6]
  IC50: 7.5 µM (active)
Fatty acid synthase [7]
  IC50: 7.33 µM (active)
Streptococcus
  EC50: > 150 µM (not active)
Streptokinase A
  EC50: 23.8 µM (inconclusive)
[3]
  IC50: 7.13 µM (not active)
[8]
  EC50: 5.27 µM (active)
[9]
  IC50: 27.1 µM (active)

## Sc1nnc(COc2ccccc2)n1/N=C/c1cccnc1
[10]
  IC50: 3.71 µM (active)
[11]
  IC50: > 100 µM (inactive)

## CCN(CC)c1ccc(/C=N/N=C(c2ccccc2)c2ccccc2)c(O)c1
[2]
  IC50: > 80 µM (inactive)

## O=C1OC(=O)C2C3CCC(O3)C12 (stereo unspecified)
[12]
  IC50: 2.57 µM (active)

## COc1cc(OC)c(/C=N/NC(N)=S)cc1Br
[2]
  IC50: > 80 µM (inactive)

## O=C1OC(=O)C2C1[C@@H]1CC[C@H]2O1 (stereo partly specified)
[12]
  IC50: 3.06 µM (active)

## NC(=O)/C(=N\OC(=O)c1ccco1)c1nc(-c2ccc(Br)cc2)cs1
Vero
  CC50: > 40 µM (active)
Coagulation factor XII
  IC50: 21 µM (active)
[13]
  IC50: 7.32 µM (active)
Genome polyprotein
  IC50: 40.8 µM (active)
Cytochrome P450 2D6
  AC50: 25.1 µM (inconclusive)
[9]
  IC50: 34.3 µM (active)
Prothrombin
  IC50: 0.925 µM (active)
[14]
  IC50: 29.2 µM (active)

## Cc1ccc(C)c2nc(O)c(CN(Cc3cccnc3)C(S)=NCc3ccco3)cc12
[1]
  EC50: > 50 µM (active)

## O=C(NC1(C(F)(F)F)Oc2ccccc2O1)N1CCC2(CC1)OCCO2
Procathepsin L
  IC50: > 59.6 µM (not active)
Aspartyl aminopeptidase
  IC50: 2.78 µM (active)

## O=c1c2c([N+](=O)[O-])cc([N+](=O)[O-])cc2sn1Cc1ccccc1
Procathepsin L
  IC50: > 59.6 µM (not active)
Streptococcus
  EC50: 16.1 µM (active)
Large T antigen
  IC50: 13.1 µM (active)
Streptokinase A
  EC50: > 150 µM (not active)
[15]
  EC50: 1.77 µM (active)
[8]
  EC50: 4.35 µM (active)
Aspartyl aminopeptidase
  IC50: > 0.101 µM (active)
[16]
  EC50: 16.9 µM (active)
[10]
  IC50: 4.16 µM (active)

## C=CCn1c(S)nnc1CSc1nc2ccccc2s1
[10]
  IC50: 3.29 µM (active)
[11]
  IC50: > 100 µM (inactive)

## O=C(CSc1nnc(-c2cccs2)n1Cc1ccccc1)NCc1ccc2c(c1)OCO2
[5]
  EC50: 10.2 µM (active)

## Cc1ccc(S(=O)(=O)NCCn2c(C)cc3ccccc32)cc1
Cytochrome P450 2C9
  AC50: 3.55 µM (inconclusive)
Estrogen receptor
  EC50: 28.7 µM (active)
